Measured values: PMC8031368 (ACS chemical biology, 2020)

Key:
GR [1] = experiment: Immunoblot of GR in tissues of JG231 treated mice; type: in vivo; conditions: JG231 4 mg/kg/day for 3 days intraperitoneally
GR in MDA MB 231 = experiment: Immunoblot of GR in MDA MB 231 cells treated with JG231; type: cell-based, human; conditions: 24 h
[2] = test system: prostate cancer mouse models; conditions: cited from earlier work
GR in MCF7 = experiment: Immunoblot of GR in MCF7 cells treated with JG231; type: cell-based, human; conditions: 24 h
[3] = test system: GR target genes (GILZ, FKBP5, Per1) in DU145 cells; experiment: Real time PCR of GR target genes in DU145 cells; type: cell-based, human; conditions: DU145 cells, dexamethasone 1 μM, 6 h exposure
GR [4] = biological target: T1, GR (Mus musculus, UniProt P06537); experiment: 18F-YJH08 uptake in adrenalectomized mice
T1 sequence (P06537 1-792): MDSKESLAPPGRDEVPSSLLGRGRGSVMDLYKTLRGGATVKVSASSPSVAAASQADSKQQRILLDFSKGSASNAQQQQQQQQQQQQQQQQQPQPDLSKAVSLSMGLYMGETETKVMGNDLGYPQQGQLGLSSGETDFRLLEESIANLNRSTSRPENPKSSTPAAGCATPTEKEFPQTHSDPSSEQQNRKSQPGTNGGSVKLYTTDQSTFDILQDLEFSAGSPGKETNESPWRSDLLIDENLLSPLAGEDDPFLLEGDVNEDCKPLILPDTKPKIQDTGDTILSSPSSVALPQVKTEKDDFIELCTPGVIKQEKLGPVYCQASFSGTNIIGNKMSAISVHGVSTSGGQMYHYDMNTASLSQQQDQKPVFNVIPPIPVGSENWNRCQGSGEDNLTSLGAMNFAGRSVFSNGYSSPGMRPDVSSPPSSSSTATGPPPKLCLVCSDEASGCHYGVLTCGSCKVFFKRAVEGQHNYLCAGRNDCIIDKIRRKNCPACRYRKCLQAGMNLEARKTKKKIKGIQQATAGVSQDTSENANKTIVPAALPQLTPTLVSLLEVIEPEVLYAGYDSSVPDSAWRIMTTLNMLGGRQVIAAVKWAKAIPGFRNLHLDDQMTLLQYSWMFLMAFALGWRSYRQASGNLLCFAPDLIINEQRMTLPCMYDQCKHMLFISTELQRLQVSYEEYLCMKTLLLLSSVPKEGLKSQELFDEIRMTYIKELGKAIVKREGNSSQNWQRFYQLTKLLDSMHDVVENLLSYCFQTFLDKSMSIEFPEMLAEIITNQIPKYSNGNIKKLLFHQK

[5] = Dynamic PET scan over 60 min, time activity curves; type: in vivo; conditions: male C57Bl6/J mice
GR [6] = biological target: T1, GR; experiment: 18F-YJH08 PET/CT in adipocyte specific GR knockout mice; type: in vivo; conditions: vs wild type litter mate, supraspinal and scapular brown fat depots
[7] = Biodistribution study post mortem; type: in vivo; conditions: C57Bl6/J mice, mean ± SD
[8] = Determination of partition coefficient; type: physicochemical; conditions: 1-octanol / PBS pH 7.4

CCn1c(=O)/c(=C2\Sc3cc(Cl)ccc3N2C)s/c1=C\c1scc[n+]1Cc1ccc(Br)s1.[Cl-] [JG231]
change in GR levels in kidneys, liver, and muscle (GR [1]): no change
reduction in GR expression levels in brown fat (GR [1]): ~ 50%
GR degradation (immunoblot) (GR in MDA MB 231): degrades GR
antitumor activity [2]: antitumor activity
GR degradation (immunoblot) (GR in MCF7): degrades GR

C[C@@H]1C[C@H]2[C@@H]3CCC4=CC(=O)C=C[C@]4(C)[C@@]3(F)[C@@H](O)C[C@]2(C)[C@@]1(O)C(=O)CO [dexamethasone, reference compound]
induction of Per1 [3]: induced

COc1cccc2c1-c1ccc3c(c1C(Cc1ccc([18F])cc1)O2)C(C)=CC(C)(C)N3 (centres unmarked) [18F-YJH08, ^18F-5-(4-fluorobenzyl)-10-methoxy-2,2,4-trimethyl-2,5-dihydro-1H-chromeno[3,4-f]quinoline]
tissue uptake in adx mice compared to intact mice (GR [4]): higher
mechanism of clearance ([5]; liver uptake and washout): hepatobiliary
radiotracer uptake in the bone (stability to radiodefluorination) [5]: low and approximately equivalent to muscle
uptake in fat depots of GR^fl/fl, Adipoq-Cre knockout mice (GR [6]): significantly reduced
uptake in adrenal gland ([7]; 30 min after injection): 20.02 ± 2.21 % ID/g
uptake in adrenal gland ([7]; 60 min after injection): 9.43 ± 0.08 % ID/g
uptake in adrenal gland ([7]; 90 min after injection): 5.72 ± 2.32 % ID/g
uptake in blood ([7]; 30 min after injection): 0.85 ± 0.1 % ID/g
uptake in blood ([7]; 60 min after injection): 0.57 ± 0.02 % ID/g
uptake in blood ([7]; 90 min after injection): 0.49 ± 0.06 % ID/g
uptake in bone ([7]; 30 min after injection): 1.11 ± 0.15 % ID/g
uptake in bone ([7]; 60 min after injection): 0.61 ± 0.15 % ID/g
uptake in bone ([7]; 90 min after injection): 0.58 ± 0.16 % ID/g
uptake in brain ([7]; 30 min after injection): 1.68 ± 0.14 % ID/g
uptake in brain ([7]; 60 min after injection): 1.33 ± 0.06 % ID/g
uptake in brain ([7]; 90 min after injection): 0.97 ± 0.03 % ID/g
uptake in heart ([7]; 30 min after injection): 3.04 ± 0.75 % ID/g
uptake in heart ([7]; 60 min after injection): 1.33 ± 0.21 % ID/g
uptake in heart ([7]; 90 min after injection): 0.92 ± 0.14 % ID/g
uptake in kidney ([7]; 30 min after injection): 4.5 ± 0.5 % ID/g
uptake in kidney ([7]; 60 min after injection): 2.35 ± 0.34 % ID/g
uptake in kidney ([7]; 90 min after injection): 1.86 ± 0.26 % ID/g
uptake in large intestine ([7]; 30 min after injection): 1.33 ± 0.35 % ID/g
uptake in large intestine ([7]; 60 min after injection): 1.23 ± 0.43 % ID/g
uptake in large intestine ([7]; 90 min after injection): 6.67 ± 4.73 % ID/g
uptake in liver ([7]; 30 min after injection): 11.03 ± 0.89 % ID/g
uptake in liver ([7]; 60 min after injection): 7.7 ± 0.69 % ID/g
uptake in liver ([7]; 90 min after injection): 8.43 ± 1.38 % ID/g
uptake in lung ([7]; 30 min after injection): 2.65 ± 0.19 % ID/g
uptake in lung ([7]; 60 min after injection): 2.02 ± 0.29 % ID/g
uptake in lung ([7]; 90 min after injection): 1.39 ± 0.1 % ID/g
uptake in muscle ([7]; 30 min after injection): 1.49 ± 0.2 % ID/g
uptake in muscle ([7]; 60 min after injection): 1.15 ± 0.03 % ID/g
uptake in muscle ([7]; 90 min after injection): 0.85 ± 0.18 % ID/g
uptake in pancreas ([7]; 30 min after injection): 4.5 ± 0.15 % ID/g
uptake in pancreas ([7]; 60 min after injection): 2.63 ± 0.05 % ID/g
uptake in pancreas ([7]; 90 min after injection): 1.9 ± 0.41 % ID/g
uptake in small intestine ([7]; 30 min after injection): 19.05 ± 3.27 % ID/g
uptake in small intestine ([7]; 60 min after injection): 8.61 ± 2.68 % ID/g
uptake in small intestine ([7]; 90 min after injection): 7.67 ± 2.34 % ID/g
uptake in spleen ([7]; 30 min after injection): 1.59 ± 0.13 % ID/g
uptake in spleen ([7]; 60 min after injection): 0.83 ± 0.02 % ID/g
uptake in spleen ([7]; 90 min after injection): 0.74 ± 0.15 % ID/g
uptake in stomach ([7]; 30 min after injection): 1.88 ± 0.96 % ID/g
uptake in stomach ([7]; 60 min after injection): 1.63 ± 0.92 % ID/g
uptake in stomach ([7]; 90 min after injection): 2.61 ± 1.54 % ID/g
uptake in supraspinal BAT ([7]; 30 min after injection): 14.41 ± 3.42 % ID/g
uptake in supraspinal BAT ([7]; 60 min after injection): 16.4 ± 4.93 % ID/g
uptake in supraspinal BAT ([7]; 90 min after injection): 14.58 ± 1.91 % ID/g
partition coefficient (log P) [8]: 2.78
